Converted amounts (≈) assume the structure as drawn.
How the values were obtained:
[1] = system: Mtu H37Rv (ATCC 27294); experiment: MIC testing, Microplate Alamar Blue Assay; type: cell-based; settings: Mycobacterium tuberculosis
[2] = system: Mtu H37Rv (ATCC 27294); experiment: Minimum bactericidal concentration (MBC), plating on 7H10 agar; type: cell-based; settings: Mycobacterium tuberculosis; concentration giving less than 50 colonies
[3] = system: Mtu in bone marrow derived macrophages from BALB/c mice; experiment: Bone marrow derived macrophages (BMDM) intracellular infection model; type: cell-based, Mycobacterium tuberculosis; settings: for BMDM (log Redn @ 8 μg/mL): 10 days drug exposure, CFU
[4] = system: Mtu (tubercle bacilli) lung infection; experiment: In vivo dose-response, aerosol infection model, 4 wk efficacy; settings: BALB/c mice, oral once daily, 6 days a week for 4 weeks
[5] = Pharmacokinetic parameters in mouse; type: in vivo, BALB/c mice
Method: BALB/c mice (8-10 week old) were dosed with the compound in an appropriate vehicle at specified doses as a single dose at a dose volume of 10 mL/Kg. The dose was administered either orally or parentally. Blood samples were collected at various time points ranging from 0.08 h to 50 h post dosing and plasma harvested by acceptable methods like precipitation or extraction. The concentration of the compound in plasma was determined by standard analytical instruments like HPLC and/or LC-MS.
(§1) PK analyses of the plasma concentration-time relationships were performed with WinNonLin software (or any other suitable software program). A noncompartmental analysis program was used to calculate the PK parameters, such as the maximum concentration of drug in plasma (Cmax), time to Cmax(tmax), elimination rate constant, elimination half-life, and AUC from time zero to infinity (AUC0-inf)
(§2) The compounds were dosed to animals at various doses (not exceeding 25 mg/kg) and the concentration of the compound at various time points was estimated.

[6] = Pharmacokinetic parameters in rat; type: in vivo; settings: plasma; Rat (20-25 mg/kg)
Method: as §1, §2

[7] = Pharmacokinetic parameters in dog; type: in vivo; settings: plasma; Dog (12.5-15 mg/kg)
Method: as §1, §2

[8] = in vitro; settings: mouse
[9] = cited from earlier work
[10] = compared with Linezolid; cited from earlier work
[11] = cited from earlier work; remark: listed apart in the source
[12] = system: M. tuberculosis; settings: given orally or parenterally to experimental animals; cited from earlier work
[13] = cited from earlier work; remark: listed apart in the source
[14] = system: mycobacteria; settings: cited from earlier work
[15] = PPB (fraction free), mouse; settings: plasma
[16] = system: slow growing mycobacteria; settings: cited from earlier work
[17] = BALB/c, plasma, Mouse (10 mg/kg)
[18] = mouse, at the minimum effective dose

| SMILES | MIC [1] [µg/mL] | MBC [2] [µg/mL] | BMDM (log Redn @ 8 μg/mL) [3] [log] | Minimum Effective Dose in a 4 wk efficacy model [4] [mg/kg] | half-life [5, 17] [h] | fAUC/MIC [5, 18] | half-life [6] [h] | half-life [7] [h] | antimycobacterial activities in the murine model [14] | further results |
| --- | --- | --- | --- | --- | --- | --- | --- | --- | --- | --- |
| O=C([C@@H](O)CO)N1CC=C(c2c(F)cc(N3C[C@H](COc4ccon4)OC3=O)cc2F)CC1 [AZD2563, (5R)-3-[4-[1-[(2S)-2,3-dihydroxypropanoyl]-3,6-dihydro-2H-pyridin-4-yl]-3,5-difluoro-phenyl]-5-(isoxazol-3-yloxymethyl)oxazolidin-2-one] | 0.5 (≈ 1.07 µM) | 2 (≈ 4.3 µM) | 1.3 | 125 | 1.3 | 54.14 | 4 to 6 | 10 | – | bactericidal activity in the intracellular infection model (BMDM) as compared to Linezolid ([3]; compared to Linezolid): greater bactericidal activity; AUC ([5]; BALB/c, mouse, in vivo): 150000 ng·h/mL; fAUC ([5]; BALB/c, mouse, in vivo): 27.07; AUC ([5]; BALB/c, mouse, in vivo, 10 mg/kg): 20300 ng·h/mL; fraction unbound [8]: 0.18 |
| CC(=O)NC[C@H]1CN(c2ccc(-c3ccc(-c4nnnn4C)nc3)c(F)c2)C(=O)O1 [DA-7867] | – | – | – | – | – | – | – | – | – | in vitro efficacy [9]: good in vitro; in vivo efficacy [10]: better in vivo efficacy than Linezolid; tolerability in rat toxicology studies [11]: poorly tolerated |
| CC(=O)NC[C@H]1CN(c2ccc(C(C)=O)cc2)C(=O)O1 [DuP-721] | – | – | – | – | – | – | – | – | – | activity against M. tuberculosis [12]: good activity; toxicity in animal models [13]: lethal toxicity |
| CC(=O)NC[C@H]1CN(c2ccc(N3CCOCC3)c(F)c2)C(=O)O1 [Linezolid, N—[(S)-3-(3-Fluoro-4-morpholin-4-yl-phenyl)-2-oxo-oxazolidin-5-ylmethyl]-acetamide] | 0.5 (≈ 1.48 µM) | 4 (≈ 11.9 µM) | −0.05 | 250 | 1 | 390.24 | 1.3 to 3 | 4 | promising antimycobacterial activities | AUC ([5]; BALB/c, plasma, oral, mouse, at the minimum effective dose, read-out: AUC): 279000 ng·h/mL; AUC ([5]; BALB/c, plasma, Mouse (10 mg/kg), read-out: AUC): 7300 ng·h/mL; fAUC ([5]; mouse, at the minimum effective dose, AUC x fraction free): 195.12; AUC [6]: 41600 ng·h/mL; AUC [7]: 42000 ng·h/mL; fraction unbound [15]: 0.7 |
| CC(=O)NC[C@H]1CN(c2ccc(N3CCSCC3)c(F)c2)C(=O)O1 [PNU-100480] | – | – | – | – | – | – | – | – | promising antimycobacterial activities | – |
| CC(=O)NC[C@H]1CN(c2ccc(N3CCN(Cc4ccc([N+](=O)[O-])o4)CC3)c(F)c2)C(=O)O1 [RBx 7644] | – | – | – | – | – | – | – | – | – | antimycobacterial activity [16]: modest antimycobacterial activity |

Reference: patent US20120035219A1, “Compound for the Treatment of Tuberculosis” (ASTRAZENECA AB, priority 2009, published 2012)
